Experimental data from patent US20240245602A1, “DRUG COMBINATION KITS AND METHODS OF DRUG DELIVERY” (President and Fellows of Harvard College, priority 2020, published 2024).

Assay: In vivo ciprofloxacin mass in aspirated middle ear fluid by HPLC/MS after delivery through implanted tympanostomy tubes
Conditions: after 5 minutes of therapeutic delivery (Ciprodex)
Experimental: N/A indicates an amount of drug below the detection limit of 100 ng/ml. Chinchillas underwent a sequential series of middle ear saline washes, and middle ear fluid was aspirated for the subsequent analysis by LC-MS.
Chinchillas were randomly allocated into two groups (LI-TT, denoted as Test TT, and SM-TT, denoted as SoC TT).

In the case of `O=C(O)c1cn(C2CC2)c2cc(N3CCNCC3)c(F)cc2c1=O` [ciprofloxacin], the “mass of ciprofloxacin within the middle ear, test tubes compared to SoC TTs” value is reported as “up to 5 times”.
